Measured values as given in PubChem BioAssay AID1259407 (Chemical Carcinogenesis Research Information System (CCRIS), 2018).
The source made the active and inactive calls. How the calls were made is not given here.

Tested on: CCRIS mutagenicity, Ames/micronucleus/aberration tests
Experiment: CCRIS mutagenicity studies
[1] = Test System: AMES SALMONELLA TYPHIMURIUM, Strain/Indicator: TA98, Metabolic Activation: NONE, Method: STANDARD PLATE
[2] = Test System: AMES SALMONELLA TYPHIMURIUM, Strain/Indicator: TA98, Metabolic Activation: RAT, LIVER, S-9, AROCLOR 1254, Method: STANDARD PLATE
[3] = Test System: AMES SALMONELLA TYPHIMURIUM, Strain/Indicator: TA100, Metabolic Activation: NONE, Method: STANDARD PLATE
[4] = Test System: AMES SALMONELLA TYPHIMURIUM, Strain/Indicator: TA100, Metabolic Activation: RAT, LIVER, S-9, AROCLOR 1254, Method: STANDARD PLATE

Measured: mutagenic call

Nc1ccccc1C(F)(F)F
inactive: [1] inactive; negative | [2] inactive; negative | [3] inactive; negative | [4] inactive; negative | Test System: AMES SALMONELLA TYPHIMURIUM, Strain/Indicator: TA1535, Metabolic Activation: NONE, Method: STANDARD PLATE inactive; negative | Test System: AMES SALMONELLA TYPHIMURIUM, Strain/Indicator: TA1535, Metabolic Activation: RAT, LIVER, S-9, AROCLOR 1254, Method: STANDARD PLATE inactive; negative | Test System: AMES SALMONELLA TYPHIMURIUM, Strain/Indicator: TA1537, Metabolic Activation: NONE, Method: STANDARD PLATE inactive; negative | Test System: AMES SALMONELLA TYPHIMURIUM, Strain/Indicator: TA1537, Metabolic Activation: RAT, LIVER, S-9, AROCLOR 1254, Method: STANDARD PLATE inactive; negative | Test System: AMES SALMONELLA TYPHIMURIUM, Strain/Indicator: TA1538, Metabolic Activation: NONE, Method: STANDARD PLATE inactive; negative | Test System: AMES SALMONELLA TYPHIMURIUM, Strain/Indicator: TA1538, Metabolic Activation: RAT, LIVER, S-9, AROCLOR 1254, Method: STANDARD PLATE inactive; negative

OCC(CO)(CBr)CBr
inactive: End Point: IN VITRO CHROMOSOMAL ABERRATIONS, Test System: CHINESE HAMSTER OVARY CELLS, Metabolic Activation: NONE inactive; negative | Test System: AMES SALMONELLA TYPHIMURIUM, Strain/Indicator: TA98, Metabolic Activation: HAMSTER, LIVER, S-9, AROCLOR 1254 (10%), Method: PREINCUBATION inactive; negative | Test System: AMES SALMONELLA TYPHIMURIUM, Strain/Indicator: TA98, Metabolic Activation: HAMSTER, LIVER, S-9, AROCLOR 1254 (30%), Method: PREINCUBATION inactive; negative | Test System: AMES SALMONELLA TYPHIMURIUM, Strain/Indicator: TA98, Metabolic Activation: NONE, Method: PREINCUBATION inactive; negative | Test System: AMES SALMONELLA TYPHIMURIUM, Strain/Indicator: TA98, Metabolic Activation: RAT, LIVER, S-9, AROCLOR 1254 (10%), Method: PREINCUBATION inactive; negative | Test System: AMES SALMONELLA TYPHIMURIUM, Strain/Indicator: TA98, Metabolic Activation: RAT, LIVER, S-9, AROCLOR 1254 (30%), Method: PREINCUBATION inactive; negative | Test System: AMES SALMONELLA TYPHIMURIUM, Strain/Indicator: TA100, Metabolic Activation: HAMSTER, LIVER, S-9, AROCLOR 1254 (10%), Method: PREINCUBATION inactive; negative | Test System: AMES SALMONELLA TYPHIMURIUM, Strain/Indicator: TA100, Metabolic Activation: NONE, Method: PREINCUBATION inactive; negative | Test System: AMES SALMONELLA TYPHIMURIUM, Strain/Indicator: TA100, Metabolic Activation: RAT, LIVER, S-9, AROCLOR 1254 (10%), Method: PREINCUBATION inactive; negative | Test System: AMES SALMONELLA TYPHIMURIUM, Strain/Indicator: TA100, Metabolic Activation: RAT, LIVER, S-9, AROCLOR 1254 (30%), Method: PREINCUBATION inactive; negative | Test System: AMES SALMONELLA TYPHIMURIUM, Strain/Indicator: TA1535, Metabolic Activation: HAMSTER, LIVER, S-9, AROCLOR 1254 (10%), Method: PREINCUBATION inactive; negative | Test System: AMES SALMONELLA TYPHIMURIUM, Strain/Indicator: TA1535, Metabolic Activation: NONE, Method: PREINCUBATION inactive; negative | Test System: AMES SALMONELLA TYPHIMURIUM, Strain/Indicator: TA1535, Metabolic Activation: RAT, LIVER, S-9, AROCLOR 1254 (10%), Method: PREINCUBATION inactive; negative | Test System: AMES SALMONELLA TYPHIMURIUM, Strain/Indicator: TA1537, Metabolic Activation: HAMSTER, LIVER, S-9, AROCLOR 1254 (10%), Method: PREINCUBATION inactive; negative | Test System: AMES SALMONELLA TYPHIMURIUM, Strain/Indicator: TA1537, Metabolic Activation: NONE, Method: PREINCUBATION inactive; negative | Test System: AMES SALMONELLA TYPHIMURIUM, Strain/Indicator: TA1537, Metabolic Activation: RAT, LIVER, S-9, AROCLOR 1254 (10%), Method: PREINCUBATION inactive; negative
active: End Point: IN VITRO CHROMOSOMAL ABERRATIONS, Test System: CHINESE HAMSTER OVARY CELLS, Metabolic Activation: RAT, LIVER, S-9, AROCLOR 1254 active; positive | Test System: AMES SALMONELLA TYPHIMURIUM, Strain/Indicator: TA100, Metabolic Activation: HAMSTER, LIVER, S-9, AROCLOR 1254 (30%), Method: PREINCUBATION active; positive

CC/C=C/C=C/C=C/C=C/C=C/OC[C@@H](O)CO
active: [1] active; positive | Test System: AMES SALMONELLA TYPHIMURIUM, Strain/Indicator: TA98, Metabolic Activation: NONE, Method: STANDARD PLATE (ANAEROBIC) active; positive | Test System: AMES SALMONELLA TYPHIMURIUM, Strain/Indicator: TA100, Metabolic Activation: NONE, Method: FLUCTUATION TEST (AEROBIC) active; positive | Test System: AMES SALMONELLA TYPHIMURIUM, Strain/Indicator: TA100, Metabolic Activation: NONE, Method: FLUCTUATION TEST (ANAEROBIC) active; positive | [3] active; positive | Test System: AMES SALMONELLA TYPHIMURIUM, Strain/Indicator: TA100, Metabolic Activation: NONE, Method: STANDARD PLATE (AEROBIC) active; positive | Test System: AMES SALMONELLA TYPHIMURIUM, Strain/Indicator: TA100, Metabolic Activation: RAT, LIVER, S-9, AROCLOR 1254, Method: PREINCUBATION active; positive | [4] active; positive | Test System: AMES SALMONELLA TYPHIMURIUM, Strain/Indicator: TA102, Metabolic Activation: NONE, Method: STANDARD PLATE active; positive | Test System: AMES SALMONELLA TYPHIMURIUM, Strain/Indicator: TA104, Metabolic Activation: NONE, Method: STANDARD PLATE active; positive | Test System: AMES SALMONELLA TYPHIMURIUM, Strain/Indicator: TA104, Metabolic Activation: RAT, LIVER, S-9, AROCLOR 1254, Method: STANDARD PLATE active; positive | Test System: E. COLI, Strain/Indicator: WP2 UVRA (PKM101), Metabolic Activation: NONE, Method: STANDARD PLATE (AEROBIC) active; positive | Test System: MOUSE LYMPHOMA, Strain/Indicator: L5178Y (TK+/TK-), Metabolic Activation: NONE, Method: SUSPENSION/PLATE active; positive | Test System: MOUSE LYMPHOMA, Strain/Indicator: L5178Y (TK+/TK-), Metabolic Activation: RAT, LIVER, S-9, AROCLOR 1254, Method: SUSPENSION/PLATE active; positive | Test System: Mouse lymphoma, Strain/Indicator: L5178Y (tk+/tk-), Metabolic Activation: None, Method: Suspension/plate active; positive
inactive: Test System: AMES SALMONELLA TYPHIMURIUM, Strain/Indicator: TA98, Metabolic Activation: NONE, Method: STANDARD PLATE (AEROBIC) inactive; negative | [2] inactive; negative | Test System: AMES SALMONELLA TYPHIMURIUM, Strain/Indicator: TA100, Metabolic Activation: NONE, Method: STANDARD PLATE (ANAEROBIC) inactive; negative | Test System: E. COLI, Strain/Indicator: WP2 UVRA (PKM101), Metabolic Activation: NONE, Method: STANDARD PLATE (ANAEROBIC) inactive; negative | Test System: Mouse lymphoma, Strain/Indicator: L5178Y (tk+/tk-), Metabolic Activation: Rat, Liver, S-9, Aroclor 1254, Method: Suspension/plate inactive; negative

CCOC(=O)CC(=O)OCC
inactive: Test System: Ames Salmonella typhimurium, Strain/Indicator: TA98, Metabolic Activation: None, Method: Preincubation inactive; negative | Test System: Ames Salmonella typhimurium, Strain/Indicator: TA98, Metabolic Activation: Rat, Liver, S-9, Phenobarbital and 5,6-benzoflavone, Method: Preincubation inactive; negative | Test System: Ames Salmonella typhimurium, Strain/Indicator: TA100, Metabolic Activation: None, Method: Preincubation inactive; negative | Test System: Ames Salmonella typhimurium, Strain/Indicator: TA100, Metabolic Activation: Rat, Liver, S-9, Phenobarbital and 5,6-benzoflavone, Method: Preincubation inactive; negative | Test System: Ames Salmonella typhimurium, Strain/Indicator: TA1535, Metabolic Activation: None, Method: Preincubation inactive; negative | Test System: Ames Salmonella typhimurium, Strain/Indicator: TA1535, Metabolic Activation: Rat, Liver, S-9, Phenobarbital and 5,6-benzoflavone, Method: Preincubation inactive; negative | Test System: Ames Salmonella typhimurium, Strain/Indicator: TA1537, Metabolic Activation: None, Method: Preincubation inactive; negative | Test System: Ames Salmonella typhimurium, Strain/Indicator: TA1537, Metabolic Activation: Rat, Liver, S-9, Phenobarbital and 5,6-benzoflavone, Method: Preincubation inactive; negative | Test System: E. coli, Strain/Indicator: WP2uvrA/pKM101, Metabolic Activation: None, Method: Preincubation inactive; negative | Test System: E. coli, Strain/Indicator: WP2uvrA/pKM101, Metabolic Activation: Rat, Liver, S-9, Phenobarbital and 5,6-benzoflavone, Method: Preincubation inactive; negative
